Source: patent US10588896B2, “Agents for the treatment of retroviral infectious diseases” (IMMUNOLOGIK GMBH, priority 2014, dated 2020)
Entries after “also recorded” stand apart in the source; their conditions may differ. Like-named read-outs stand apart in the source and are kept apart here.

How the values were obtained:
HIV-1NL4-3 (X4 tropic) = assay: HIV-1 replication in infected PBMC cultures (T cells), reverse transcriptase activity in supernatant; assay type: cell-based; conditions: for HIV-1 replication / concentration beginning with which HIV-1 replication is inhibited / inhibition of the HIV-1 replication / reduction of the HIV-1 replication capacity (AUC): T cells; for HIV-1 replication: structured and permanent treatment; for concentration beginning with which HIV-1 replication is inhibited: substance alone; for reduction of the HIV-1 replication capacity (AUC): 6 donors
Experimental: According to the invention, isolated primary human peripheral blood mononuclear cell (PBMC) cultures were infected to this aim with the virus strain HIV-1NL4-3(X4 tropic) or HIV-1 NLNL4-3(R5 tropic). […] The treatment with DUB inhibitors was carried out over the entire experimental period (“permanent treatment”) or only on Day 1 and Day 3 after infection (“structured treatment”). In the infection with HIV-1NL4-3 (R5 tropic), only a permanent treatment was performed. Each 2-3 days samples from the cell culture supernatants were taken, frozen and later on used for determining reverse transcriptase activity. Concomitantly, 80% of the cell culture medium was replaced and fresh PR-619 was added. Reverse transcriptase activity (ccpm) was determined in the cell-free cell culture supernatants and plotted against time (FIGS. 4A and 4B; the black arrows indicate the treatment with PR-619).
For six different donors the area under the curve (AUC) in the HIV-1 replication profiles after infection of PBMCs with T-cell tropic virus was determined, representing the HIV-1 replication capacity.
Experiments were carried out as described in Example 2. […]

HIV-1NL4-3 (R5 tropic) = assay: HIV-1 replication in infected PBMC cultures (macrophages), reverse transcriptase activity in supernatant; assay type: cell-based; conditions: for reduction of the HIV-1 replication capacity: 5 donors
Source text: As could be shown in the preceding example that PR-619 inhibits the late processes in Gag processing this effect on the spread of infection was investigated. According to the invention, isolated primary human peripheral blood mononuclear cell (PBMC) cultures were infected to this aim with the virus strain HIV-1NL4-3(X4 tropic) or HIV-1 NLNL4-3(R5 tropic). One day after infection cells were washed with PBS (phosphate buffer saline), provided with fresh medium containing the DUB inhibitor PR-619 in several non-cytotoxic concentrations (3.5 μM, 7 μM, 14 μM, 28 μM). The treatment with DUB inhibitors was carried out over the entire experimental period (“permanent treatment”) or only on Day 1 and Day 3 after infection (“structured treatment”). In the infection with HIV-1NL4-3 (R5 tropic), only a permanent treatment was performed. Each 2-3 days samples from the cell culture supernatants were taken, frozen and later on used for determining reverse transcriptase activity. Concomitantly, 80% of the cell culture medium was replaced and fresh PR-619 was added. Reverse transcriptase activity (ccpm) was determined in the cell-free cell culture supernatants and plotted against time (FIGS. 4A and 4B; the black arrows indicate the treatment with PR-619).
In permanent treatment 3.5 μM yielded a reduction by 35%(±8%), 7 μM a reduction by 60%(±9%) and 14 μM by 100%.
For comparative purposes, the anti-retroviral effect found for PR-619 was compared with three other DUB inhibitors P005091, WP1130 and P22077. Experiments were carried out as described in Example 2.
In order to clarify the question whether a combined permanent treatment with PR-619 and the proteasome inhibitor bortezomib (Velcade®) causes a synergistic effect on the replication capacity of HIV-1, a cross titration was carried out with both substances (analogous to Example 2 and 3). Herein, PBMC cultures were treated permanently after infection with the virus strain HIV-1NL4-3, first only with the DUB inhibitor PR-619 or with the proteasome inhibitor bortezomib in non-toxic increasing concentrations (PR-619: 0.3 μM, 0.9 μM, 2.75 μM and 8 μM; bortezomib: 0.6 nM, 1.5 nM, 5.3 nM and 16 nM).
Herein, the cells were treated permanently with constantly 0.6 nM bortezomib and increasing concentrations of PR-619 (0.3 μM, 0.9 μM, 2.7 μM and 8 μM). Experiments were carried out as described in Example 2. […] The DUB inhibitor PR-619 is able to inhibit the HIV-1 replication beginning with a concentration of 2.7 μM (FIG. 12B).

[1] = system: HIV-1 Gag structure proteins; assay: Western Blot analysis of HIV-1 Gag processing in HeLa cells transfected with pNLΔenv (cell and VLP fraction); assay type: cell-based
Experimental: In order to investigate whether PR-619 and its derivatives inhibit the processing of HIV-1 Gag structure proteins, Western Blot (WB) analyses were carried out. Therefore, HeLa cell cultures were transfected with the pNLΔenv plasmid which encodes for HIV-1 proteins excluding the env envelope proteins. This enables the production of virus-like particles (VLPs), an established in vitro model in HIV-1 research. 24 h after transfection the cells were transferred to reaction vessels, and a pre-incubation with PR-619 for 1 h was performed. Thereupon, the cells were washed three times with PBS and incubated for 4 h in fresh RPMI medium either with 20 μM PR-619 (Merck-Millipore) or with the corresponding amount of DMSO as solvent control at 37° C.
Then a separation into a cell and a VLP fraction was effected by means of centrifugation. VLPs were purified from the cell culture supernatants via a 20% sucrose cushion. Cells were then washed with PBS and lysed with RIPA buffer. Protein concentrations were determined by means of Bradford protein assays and assimilated for the respective lysates. […]
A densitometric evaluation of Gag processing in the VLP fraction was carried out with the analysis program AIDA®. The densitometric evaluation allows for the quantification of signal intensities in Western Blot and thus conclusions on the quantity of a certain protein in the sample. […]

[2] = system: MHC-I antigen presentation of Gag-derived epitopes; assay: MHC-I antigen presentation of Gag-derived SL epitope in HeLa-Kb cells, FACS with mAB 25D1.16; assay type: cell-based, human; conditions: HeLa-Kb cells transfected with Gag-SL, 7 and 14 μM, dose-dependent
Source text: Since there is no conformation-dependent MHC-I specific antibody that could detect Gag epitopes bound to human MHC-I molecules the ovalbumin-derived sequence […] (SL) was introduced as a model epitope into the non-structured SP1 spacer region of Gag. For measuring the MHC-I antigen presentation, HeLa cells constitutively expressing the murine SL-binding MHC-I allotype H2-Kb (HeLa-Kb) (Porgador et al., 1997, Immunity 6(6), 715-726) were transfected with expression plasmids coding for Gag-SL proteins. Performing flow cytometric analyses the monoclonal antibody (mAB) 25D1.16 was used which recognizes specifically SL in the complex with H2-Kb.
24 h after transfection the cells were incubated overnight with different concentrations of the DUB inhibitor PR-619 (7 and 14 μM).
Then, an acid wash (acid washing buffer pH 3) was carried out for removing the H2-Kb-SL complexes from the cell surface. Thereafter, the cells were incubated with and without PR-619 for 4 h at 37° C. and then the newly loaded H2-Kb-SL complexes at the cell surface under inhibition with PR-619 were determined by FACS analysis with the monoclonal AB 25D1.16. For compensating possible differences in the expression level of Gag-SL, the mean fluorescence intensity (MFI) of the 25D1.16 staining was normalized to the MFI of the intracellular Gag signal.

[3] = system: HIV-1NL4-3 (X4-tropic) or HIV-1NL4-3 (R5-tropic); assay: HIV-1 replication in human lymphoid aggregate culture (HLAC) ex vivo tonsillar tissue; assay type: cell-based; conditions: for reduction of the HIV-1 replication capacity: T cells and macrophages, permanent treatment, 3 replication profiles
Experimental: In order to substantiate the inhibition of the HIV replication under treatment with PR-619, as observed in Example 2, according to the invention human ex vivo cultivated tonsillar tissue was infected with the virus strain HIV-1NL4-3 (X4-tropic) or HIV-1NL4-3 (R5-tropic). The experiments were carried out as described in Example 2.

HLAC cultures = assay: WST assay cytotoxicity in HLAC cultures from ex vivo tonsillar tissue; assay type: cell-based, human

## CC(=O)c1cc([N+](=O)[O-])c(Sc2ccc(F)cc2F)s1 [P22077, reference compound]
HIV-1NL4-3 (X4 tropic); 7.5 μM, 15 μM, 30 μM and 60 μM
  HIV replication: nearly complete inhibition of HIV replication
PBMC cultures; 7.5 μM, 15 μM, 30 μM and 60 μM
  general cytotoxic damage of the host cell: does not exist

## CC(=O)c1cc([N+](=O)[O-])c(Sc2cccc(Cl)c2Cl)s1 [P005091, 1-[5-[(2,3-dichlorophenyl)thio]-4-nitro-2-thienyl]-ethanone, reference compound]
HIV-1NL4-3 (X4 tropic); 0.75 μM, 1.5 μM and 3 μM
  HIV-1 replication: does not inhibit HIV-1 replication
HIV-1NL4-3 (R5 tropic); 0.75 μM, 1.5 μM and 3 μM
  HIV-1 replication: does not inhibit HIV-1 replication
PBMC cultures; 0.75-3 μM, day 13
  toxicity (WST assay): shows no toxicity

## COc1ccc(C[C@H](NC(=O)[C@H](C)NC(=O)CN2CCOCC2)C(=O)N[C@@H](Cc2ccccc2)C(=O)[C@@]2(C)CO2)cc1 [PR-957, reference compound]
HIV-1NL4-3 (X4 tropic); permanent treatment
  concentration beginning with which HIV-1 replication is inhibited: 80 nM
PBMC cultures; 20-160 nM, permanent treatment
  toxicity (WST assay): did not display any toxicity

## CCC[C@H](NC(=O)/C(C#N)=C/c1cccc(Br)n1)c1ccccc1 [WP1130, (2E)-3-(6-bromo-2-pyridinyl)-2-cyano-N-[(1S)-1-phenylbutyl]-2-propenamide, reference compound]
HIV-1NL4-3 (X4 tropic); 3 μM and 6 μM
  HIV-1 replication: no significant reduction of the HIV-1 replication
HIV-1NL4-3 (R5 tropic); 3 μM and 6 μM
  HIV-1 replication: no significant reduction of the HIV-1 replication
PBMC cultures; concentration >3 μM, day 13
  toxicity (WST assay): complete death of the cells
PBMC cultures; permanent treatment, 3 μM, day 13
  reduction in living cells: 40%

## CC(C)C[C@H](NC(=O)[C@H](Cc1ccccc1)NC(=O)c1cnccn1)B(O)O [bortezomib, reference compound]
HIV-1NL4-3 (X4 tropic); permanent treatment
  concentration beginning with which HIV-1 replication is inhibited: 5.3 nM
HIV-1NL4-3 (R5 tropic); permanent treatment, substance alone
  concentration beginning with which HIV-1 replication is inhibited: 5.3 nM
PBMC cultures; 16 nM, permanent treatment
  reduction in living cells: 60%
PBMC cultures; 0.6-5.3 nM, permanent treatment
  toxicity (WST assay): did not display any toxicity

## N#CSc1cc(SC#N)c(N)nc1N [PR-619, 2,6-diaminopyridine-3,5-bis(thiocyanate)]
[1]; 20 μM PR-619, 4 h, HeLa cells transfected with pNLΔenv
  Gag processing (Western Blot): significantly inhibits Gag processing
[1]; 20 μM PR-619, VLP fraction
  generation of the main Gag processing product CA (densitometric evaluation, VLP fraction): clearly inhibited
HIV-1NL4-3 (X4 tropic); PBMC
  antiviral efficacy (concentration): about 3.5 μM
HIV-1NL4-3 (X4 tropic); 3.5 μM, permanent treatment
  inhibition of the HIV-1 replication: complete
HIV-1NL4-3 (X4 tropic); 3.5 μM, structured treatment
  inhibition of the HIV-1 replication: clear
HIV-1NL4-3 (X4 tropic); permanent treatment, 3.5 μM
  reduction of the HIV-1 replication capacity (AUC): 50%(±16%)
HIV-1NL4-3 (X4 tropic); permanent treatment, 7 μM
  reduction of the HIV-1 replication capacity (AUC): 97%(±15%)
HIV-1NL4-3 (X4 tropic); permanent treatment, 14 μM
  reduction of the HIV-1 replication capacity (AUC): 100%
HIV-1NL4-3 (X4 tropic); permanent treatment
  concentration beginning with which HIV-1 replication is inhibited: 2700 nM
HIV-1NL4-3 (X4 tropic); structured treatment, 3.5 μM
  reduction of the HIV-1 replication capacity (AUC): 23%(±14%)
HIV-1NL4-3 (X4 tropic); structured treatment, 7 μM
  reduction of the HIV-1 replication capacity (AUC): 94%(±14%)
HIV-1NL4-3 (X4 tropic); structured treatment, 14 μM
  reduction of the HIV-1 replication capacity (AUC): 100%
HIV-1NL4-3 (R5 tropic); permanent treatment, 3.5 μM
  reduction of the HIV-1 replication capacity: 35%(±8%)
HIV-1NL4-3 (R5 tropic); permanent treatment, 7 μM
  reduction of the HIV-1 replication capacity: 60%(±9%)
HIV-1NL4-3 (R5 tropic); permanent treatment, 14 μM
  reduction of the HIV-1 replication capacity: 100%
[2]
  increase of MHC-I antigen presentation of Gag-derived epitopes: 6 fold
[3]; 1.25 μM
  inhibitory effect on the HIV-1 replication: did not exert an inhibitory effect
[3]; 2.5 μM, 5 μM and 10 μM
  inhibition of the replication: clear, respectively complete inhibition of the replication
[3]; 2.5 μM
  reduction of the HIV-1 replication capacity: 40%(±9%)
[3]; 5 μM
  reduction of the HIV-1 replication capacity: 86%(±2%)
[3]; 10 μM
  reduction of the HIV-1 replication capacity: completely
HLAC cultures; all applied antiretrovirally effective concentrations, 15 days
  toxic effect (WST assay): did not display any significant toxic effect
HLAC cultures; highest concentration of 10 μM
  toxic effects (WST assay): no toxic effects were observed
PBMC cultures; PBMC, 15 days
  concentration at which a clear toxic effect starts: 28 µM
PBMC cultures; antivirally effective concentrations, observation period of 15 days
  toxic effect (WST assay): did not display any significant toxic effect; also recorded: does not display a significant toxic effect
PBMC cultures; highest used concentration of 8 μM, permanent treatment
  toxic effect (WST assay): did not show either a clear toxic effect
